{
  "source": "patent US11787840B2",
  "about": "“Compositions and methods for treating and preventing autoimmune induced cardiac long QT syndrome” (The United States Government As Represented By The …, priority 2019, dated 2023)",
  "tested_on": "Ro52-immunized guinea-pigs (anti-Ro Abs associated QTc prolongation)",
  "assay": "QTc (ECG) in Ro52-immunized guinea pigs after linear peptide 4",
  "assay_type": "in vivo, guinea pig",
  "conditions": "linear peptide 4, 2 mg/kg, one-time injection at day 15; ECG through day 30; versus immunized control without peptide",
  "source_text": "Immunization and peptide administration protocol. The overall experimental protocol for immunization and administration of the peptide used to generate data in FIG. 2 is shown in FIG. 6. Specifically, two group of guinea pigs (control and experimental) were first immunized subcutaneously initially on day 0 (Do) with Ro52 antigen followed by a booster at days 10 and 15, and anti-Ro antibodies levels were monitored by ELISA. The control group was not administered any peptide treatment except the immunization. The experimental group was injected with the linear peptide #4 (2 mg/kg) at day 15.",
  "note": "“Also recorded” adds a separate entry of the source.",
  "data": [
    {"sequence": "GNMEQPHMDSRIGWLHNLGDQ [Peptide 4]", "values": [
      {"measurement": "effect on QTc interval", "value": "rescued and normalized the QTc interval; also recorded: drastic shortening of QTc"}
    ]}
  ]
}
